Measurements from patent US20240246937A1 (MERCK SHARP & DOHME LLC, priority 2021, published 2024).

Target: recombinant IL4I1 (Homo sapiens (Human), UniProt Q96RQ9)
Assay: IL4I1 Enzymatic Assay (Amplex Red/HRP coupled fluorescence detection of H2O2)
Format: biochemical
Conditions: 240 min; recombinant IL4I1, four-hour pre-incubation with compound
In short: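 Recombinant human IL4I1 (1 nM final) pre-incubated 4 h with compound at ambient temperature in 50 mM Hepes pH 7.0, 0.005% Tween20. Started with 1 mM each Phe/Tyr/Trp plus Amplex Red/HRP; H2O2-derived resorufin fluorescence read after 120 min; EC50 from ten-point 1:3 titration, four-parameter fit.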

Chain of recombinant IL4I1 (Q96RQ9 22-567): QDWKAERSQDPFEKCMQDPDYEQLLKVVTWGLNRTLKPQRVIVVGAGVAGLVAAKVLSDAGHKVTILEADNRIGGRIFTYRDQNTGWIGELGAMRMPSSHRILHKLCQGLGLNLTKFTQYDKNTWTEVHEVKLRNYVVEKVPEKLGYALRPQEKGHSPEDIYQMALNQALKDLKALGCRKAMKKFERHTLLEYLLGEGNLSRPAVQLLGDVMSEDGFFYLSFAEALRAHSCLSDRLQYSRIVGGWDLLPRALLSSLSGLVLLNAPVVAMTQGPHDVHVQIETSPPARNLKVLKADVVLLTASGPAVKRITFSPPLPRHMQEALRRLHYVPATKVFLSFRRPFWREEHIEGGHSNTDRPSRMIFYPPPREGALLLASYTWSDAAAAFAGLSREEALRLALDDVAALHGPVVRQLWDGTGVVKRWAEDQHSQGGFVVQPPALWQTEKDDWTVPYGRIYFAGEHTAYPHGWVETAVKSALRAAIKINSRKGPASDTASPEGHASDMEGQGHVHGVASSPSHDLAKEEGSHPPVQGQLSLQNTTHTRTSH

SMILES | EC50 [nM]
O=c1c(=O)n(C23CC(F)(C2)C3)ccn1Cc1ccc(-n2ccnn2)cn1 [Example 262, 1-((5-(1H-1,2,3-triazol-1-yl)pyridin-2-yl)methyl)-4-(3-fluorobicyclo[1.1.1]pentan-1-yl)-1,4-dihydropyrazine-2,3-dione] | 868
O=c1c(=O)n(C2(CF)CC2)ccn1Cc1ccc(-n2nccn2)nc1 [Example 264, 1-((6-(2H-1,2,3-triazol-2-yl)pyridin-3-yl)methyl)-4-(1-(fluoromethyl)cyclopropyl)-1,4-dihydropyrazine-2,3-dione] | 73
O=C1C(=O)N(C23CC(F)(C2)C3)CCN1Cc1ccc(-n2nccn2)nc1 [Example 265, 1-((6-(2H-1,2,3-triazol-2-yl)pyridin-3-yl)methyl)-4-(3-fluorobicyclo[1.1.1]pentan-1-yl)piperazine-2,3-dione] | 114
O=C1C(=O)N([C@H]2C[C@H](c3ccccc3)C2)CCN1Cc1ccc(-c2ccccc2)nc1 [Example 266B, trans-1-(3-phenylcyclobutyl)-4-((6-phenylpyridin-3-yl)methyl)piperazine-2,3-dione] | 4
O=C1C(=O)N(C2CCCC2)CCN1CCc1cc2ccc(Cl)cc2nn1 [Example 268, 1-(2-(7-chlorocinnolin-3-yl)ethyl)-4-cyclopentylpiperazine-2,3-dione] | 15
O=C1C(=O)N(C2CCCC2)CCN1Cc1cnc(-c2ccccc2)cn1 [Example 271, 1-cyclopentyl-4-((5-phenylpyrazin-2-yl)methyl)piperazine-2,3-dione] | 14
O=C1C(=O)N(C2CCCC2)CCN1Cc1cnn(-c2ccccc2)c1 [Example 273, 1-cyclopentyl-4-((1-phenyl-1H-pyrazol-4-yl)methyl)piperazine-2,3-dione] | 19
O=C1C(=O)N(C2CCCC2)CCN1Cc1cc(-c2ccccc2)n[nH]1 [Example 274, 1-cyclopentyl-4-((3-phenyl-1H-pyrazol-5-yl)methyl)piperazine-2,3-dione] | 34
O=C1NCCc2ccc(CN3CCN(C4CCCC4)C(=O)C3=O)cc21 [Example 275, 1-cyclopentyl-4-((1-oxo-1,2,3,4-tetrahydroisoquinolin-7-yl)methyl)piperazine-2,3-dione] | 20
O=C1C(=O)N(C2CCC2)CCN1Cc1ncc(-c2ccccc2)cn1 [Example 277, 1-cyclobutyl-4-((5-phenylpyrimidin-2-yl)methyl)piperazine-2,3-dione] | 24

The remaining lines, values ahead:

EC50 [nM] | SMILES
995 | O=C1C(=O)N(C23CC(F)(C2)C3)CCN1Cc1ccc(-n2ccnn2)cn1 [Example 263, 1-((5-(1H-1,2,3-triazol-1-yl)pyridin-2-yl)methyl)-4-(3-fluorobicyclo[1.1.1]pentan-1-yl)piperazine-2,3-dione]
4 | O=C1C(=O)N([C@H]2C[C@@H](c3ccccc3)C2)CCN1Cc1ccc(-c2ccccc2)nc1 [Example 266A, cis-1-(3-phenylcyclobutyl)-4-((6-phenylpyridin-3-yl)methyl)piperazine-2,3-dione]
57 | O=C1C(=O)N(C2CCCC2)CCN1Cc1ccc(-c2ccccc2)[n+]([O-])c1 [Example 267, 5-((4-cyclopentyl-2,3-dioxopiperazin-1-yl)methyl)-2-phenylpyridine 1-oxide]
49 | O=C1C(=O)N(C2CCCC2)CCN1CCc1cc2ccccc2nn1 [Example 269, 1-(2-(cinnolin-3-yl)ethyl)-4-cyclopentylpiperazine-2,3-dione]
24 | O=C1C(=O)N(C2CCCC2)CCN1Cc1cnc(-c2ccccc2)nc1 [Example 270, 1-cyclopentyl-4-((2-phenylpyrimidin-5-yl)methyl)piperazine-2,3-dione]
35 | O=C1C(=O)N(C2CCCC2)CCN1Cc1ccc2cc[nH]c(=O)c2c1 [Example 272, 1-cyclopentyl-4-((1-oxo-1,2-dihydroisoquinolin-7-yl)methyl)piperazine-2,3-dione]
26 | O=C1C(=O)N(C23CC(C2)C3)CCN1Cc1ncc(-c2ccccc2)cn1 [Example 276, 1-(bicyclo[1.1.1]pentan-1-yl)-4-((5-phenylpyrimidin-2-yl)methyl)piperazine-2,3-dione]
